# Source: patent US20260325465A1, “SHP-1 INHIBITORS FOR TREATING CANCER” (MDX MANAGEMENT LLC, priority 2022, published 2026)
# Experiments:
# MC38 tumor = assay: Ex vivo treatment of excised MC38 tumor; parameters: species or system murine; conditions: TPI-1 and αTLR
# Description: FIGS. 8A-8E depict that SHP-1 inhibition combined with TLR agonists (αTLR) reprograms TME of MC38 colorectal carcinoma. FIG. 8A depicts MC38 tumor treatment scheme.
# Consistent with these changes, TME analyses of MC38 colorectal and KPC pancreatic tumors treated with TLR agonist combined with TPI-1 or RT (FIGS. 8A-8E & 9) found rapid infiltration of inflammatory neutrophils (ROShigh) and tumor-killing NK cells (Granzhigh), and the strong antigen presentation also brought about the expansion of tumor-specific (p15E-reactive) cytotoxic T cells harboring high tumoricidal capacity (Granzhigh). The immunosuppressive compartments in the same TME, including MDSC and Treg, were reduced. […] Ex vivo infusion of TLR agonists and TPI-1 together, but not each individually, into excised tumors induced the similar response of T cell expansion.
# [1] = Toxicity of pulse-intermittent iSHP-1 in tumor-bearing mice; type: in vivo; conditions: three cycles of pulse-intermittent iSHP-1 with proinflammatory agents
# Description: FIGS. 10A-10B depicts pulse-intermittent iSHP-1 design and treatment schemes. In preclinical tumor models, we have tested three pulsed treatment schemes, pulses-1, -2 and -3, with iSHP-1 given once, twice or three times consecutively (1× per day) at the beginning of each cycle, and an intermittent period of 2-9 days withholding iSHP-1 treatment between cycles. The combination modalities include, but are not limited to, TLR ligands, STING activator, RT, anti-PD-1/L1 immune checkpoint blockade (αPD-1/L1), inflammatory cytokines, chemotherapies and oncolytic viruses. These combination regimens were given together with SHP-1 inhibitor or following separate dosing schedules. Murine solid tumor models with a single tumor or multi-lesions (metastases) in syngeneic mice of different backgrounds were tested. These models were established by engrafting tumors in multiple locations, and iSHP-1 treatment began when a single tumor reaches ≥200 mm^3 in size or the total tumor burden ≥300 mm^3. […]
# Throughout treatments, anti-tumoral efficacies (tumor volume changes and survival rates), adverse effects (body weight loss, proteinuria, anemia and clinical discomfort), gross organ toxicity and tissue inflammation due to toxicity, and the TME immune landscape changes were analyzed at different time points and at the terminal point. […]
# [2] = Study-1: continuous vs intermittent iSHP-1 with TLR agonists, adverse toxicity; type: in vivo, mice; conditions: i.p.
# Method: FIGS. 11A-11E depict the impact of continuous or intermittent iShp-1 treatment on the efficacy and adverse toxicity. FIG. 11A depicts the study design. Mice with KPC pancreatic cancer were either continuously treated with TPI-1 (1× per day) or in an intermittent fashion with gapping days between two treatments (intermittent). Three doses, 1, 3 and 10 mg/kg (i.p.), were tested and TLR agonists (CpG plus PolyI:C, each 10 μg, i.p., 1× every 3 day) was given to kickstart inflammatory response. […] Tumor imaging (FIG. 11B) and volume change records (FIG. 11C) indicate similar efficacies of iShp-1 with continuous or intermittent schemes.
# Tumor model: Single engraftment of KPC pancreatic adenocarcinoma
# Treatments & dosing strategies: i) iSHP-1—TPI-1, 1, 3, and 10 mg/kg; i.p. either 1× per day (continuous), or following an intermittent schedule depicted in FIG. 11. ii) TLR agonists (αTLR)—CpG, PolyI:C, each 10 μg; i.p. every 3 days
# SHP-1 = biological target: T1, SHP-1 (Mus musculus, UniProt P29351); assay: Pulse inhibition of SHP-1 in macrophages, SHP-1 activity (pNpp) over time; type: cell-based, murine
# T1 construct: lysate pNpp phosphatase activity after TPI-1 pulse
# Method: FIGS. 4A and 4B depict that pulse inhibition of SHP-1 transiently enhances proinflammatory signal transduction in macrophages. FIG. 4A: murine macrophages (bone marrow derived macrophages, or “BMDM”) were treated with TPI-1 for 15 min followed by wash to complete removal of TPI-1. At different time points after the TPI-1 treatment, macrophages were stimulated with IFNγ/LPS in the presence of alive cancer cells (1:1 ratio to BMDM) for 20 min prior to cell lysis and assaying SHP-1 activity using pNpp and WB detecting total and phosphorylated STAT1 and Erk1/2. FIG. 4B: the same setting as in FIG. 4A, except that after TPI-1 treatment, TPI-1 in medium was partially removed (50%) or without removal, followed by macrophage stimulation with IFNγ/LPS at different time points.
# KPC pancreatic cancer = assay: Study-3: iSHP-1 with RT and αPD-L1, KPC pancreatic cancer; type: in vivo, mice; conditions: TPI-1 3 or 5 mg/kg i.p. every 3 days, right flank RT 8Gy-4Gy-2Gy, αPD-L1 100 μg
# Method: FIGS. 13A-13E depict pulse-intermittent SHP-1 inhibition (iSHP-1) combination with RT and αPD-L1 treating pancreatic cancer and lung cancer. FIG. 13A depicts experimental schemes. […] Concomitantly, the tumor at the right flank was treated with 8Gy X-ray radiation (RT). After two days of intermittent period, mice on day 4 were treated with the 2nd cycle TPI-1 (i.p.) of the same dose while RT reduced to 4Gy applied to the right flank tumor. The 3rd cycle (day 7) iSHP-1 combination with RT reduced to 2Gy. Anti-PD-L1 Ab (100 μg, i.p.) was given a day following TPI-1 plus RT. FIG. 13B depicts luminescent image tracing KPC-luc and LLC-luc tumor changes post treatment. FIG. 13C depicts record of tumor volume changes and animal survival up to post-treatment 45 days.
# Modalities & Dosing Strategy: i) iSHP-1—TPI-1, 3 or 5 mg/kg, i.p., 1× every 3 days. ii) Tumor focal RT: 8Gy-4Gy-2Gy, given to right flank simultaneously with iSHP-1. iii) αPD-L1: 100 μg, i.p., given a day after iSHP-1 plus RT
# T1 sequence (P29351 whole entry): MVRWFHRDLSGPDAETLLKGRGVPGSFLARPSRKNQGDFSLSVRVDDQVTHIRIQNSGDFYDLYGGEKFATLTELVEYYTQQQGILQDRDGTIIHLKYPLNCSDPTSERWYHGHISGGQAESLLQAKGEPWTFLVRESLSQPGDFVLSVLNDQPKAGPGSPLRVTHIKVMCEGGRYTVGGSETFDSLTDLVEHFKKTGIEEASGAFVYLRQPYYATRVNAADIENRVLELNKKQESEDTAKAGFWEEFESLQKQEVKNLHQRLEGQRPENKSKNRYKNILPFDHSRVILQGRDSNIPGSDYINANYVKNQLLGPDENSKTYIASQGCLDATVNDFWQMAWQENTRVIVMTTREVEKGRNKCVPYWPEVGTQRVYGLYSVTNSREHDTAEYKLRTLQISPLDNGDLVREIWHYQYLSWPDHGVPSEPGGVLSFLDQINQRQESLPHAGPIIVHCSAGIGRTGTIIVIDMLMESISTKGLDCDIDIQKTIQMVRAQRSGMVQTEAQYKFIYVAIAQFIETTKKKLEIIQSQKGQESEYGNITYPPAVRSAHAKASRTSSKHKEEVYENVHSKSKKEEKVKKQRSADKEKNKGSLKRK
smiles,measurement,setting,value
O=C1C=CC(=O)C(c2cc(Cl)ccc2Cl)=C1 [TPI-1],CD8 T cell expansion in excised tumor,MC38 tumor,induced CD8 T cell expansion
same,"organ damage, anemia, splenomegaly",[1],"did not exhibit serious lung or kidney damage, anemia or splenomegaly"
same,"adverse effects, continuous dosing",[2]; 1× per day,"incurred acute anemia, proteinuria, splenomegaly and lung inflammation"
same,"adverse effects, intermittent dosing",[2]; intermittent,did not display or were minor
same,duration of pulse SHP-1 inhibition before activity starts to recover,"SHP-1; 15 min treatment, then wash",5 to 8 h
same,time for SHP-1 activity to recover to over 50%,"SHP-1; 15 min treatment, then wash",12 to 16 h
same,SHP-1 total protein,SHP-1; after pulse inhibition,did not appear to vary
same,SHP-1 inhibition (in words),SHP-1; immediately after 15 min treatment and wash,strong SHP-1 inhibition
same,SHP-1 activity recovered,SHP-1; in 12-16 h after 15 min treatment and wash,over 50%
same,time to recover SHP-1 activity after pulse inhibition,SHP-1; pulse inhibition in macrophages,24 h
same,SHP-1 inhibition without or with partial inhibitor removal,SHP-1; without removal or 50% removal,elongated inhibition on the SHP-1 activity
same,tumor elimination incl. distal lesions,KPC pancreatic cancer,effectively eliminating or repressing KPC pancreatic cancer and LLC lung cancer along with distal lesions
